Entries after “also recorded” stand apart in the source; their conditions may differ. Some results are limits rather than exact numbers.

For assay [1], the system named is TGFβ/SMAD Signaling Pathway SBE reporter cell line. Description: TGFβ reporter assay, in vitro small molecule screening (luciferase). In kind it is cell-based. Conditions: TGFβ stimulation, luminescence. The method, boiled down: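 SBE luciferase reporter cells (~0.5×10^6 cells/mL) preincubated with compound 5-6 h at 37 °C in 0.5% FBS MEM, then stimulated with TGFβ (12 ng/mL stock) for 18 h. Luminescence read after luciferase substrate; EC50 from curve fits.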

In assay [2] the target is T1, TGFBR2 (Homo sapiens, UniProt P37173).
T1 construct: purchased Reaction Biology Corp
Description: TGFBR2 RBC assay (enzyme inhibition assay, Reaction Biology Corp.). In kind it is biochemical. On the procedure: Compounds of the disclosure were also assayed by Reaction Biology Corp. using the TGFBR2 RBC assay (enzyme inhibition assay). […] NT refers to not tested.

The test system of assay [3] is TGFβ-inducible genes in PANC-1 tumors. Description: Intra-tumoral injection of TGFβR2 inhibitors, PANC-1 xenograft, RT-qPCR of tumors. In kind it is in vivo, nude mice. The conditions noted are these: PANC-1, 2 ug intra-tumoral QD5, tumors 4 h after last injection, vs DMSO vehicle. The protocol: (§1) TGFβR2 inhibitors were tested for their ability to alter expression in vivo of a set of genes reported to be regulated by TGFβ, particularly those associated with tumor CAFs. Two million BXCP3 (ATTC) or 5 million PANC-1 (ATTC) cells in Matrigel (Corning Life Sciences) were inoculated into the flanks of nude mice (JAX Labs) and allowed to grow to approximately 100 mm3 in size before sorting into cohorts for treatment. BXPC3 tumors were treated by intra-tumoral injection (IT) of 2 ug QD5 of either compound 211, compound 171 or equal volume of DMSO vehicle while PANC-1 tumors received 2 ug injections QD5 of compound 211 or vehicle control. Four hours after the last injection tumors were removed and processed for RT-qPCR by homogenization in M tubes (Miltenyi Biotec) using Purelink RNA Kit (Ambion) to isolate RNA and Taqman® RNA to CT 1 Step Kit (Applied Biosystems) with a OneStepPlus Thermocycler. Gene specific primers were obtained from ThermoFisher Scientific. […] Data was analyzed and graphed using GraphPad Prism v8.1.0. Statistical difference for gene mRNA expression between TGFβR2 inhibitor and vehicle treated cohorts was determined using multiple T test comparison with discovery (FDR) by the two-stage linear step-up procedure of Benjamini, Krieger and Yekutieli, with Q=5%. Each row was analyzed individually, without assuming a consistent SD.
For orientation: Real-time PCR tracks product formation cycle by cycle.

For assay [4], the system named is TGFβ-inducible genes in BXPC3 tumors. Description: Intra-tumoral injection of TGFβR2 inhibitors, BXPC3 xenograft, RT-qPCR of tumors. In kind it is in vivo, nude mice. The conditions noted are these: BXPC3, 2 ug intra-tumoral QD5, tumors 4 h after last injection, vs DMSO vehicle. On the procedure:
as §1

Assay [5] deals with αSMA gene expression in LL97a cells. Kind of assay: qPCR of TGFβ-induced αSMA mRNA in LL97a IPF fibroblasts. In kind it is cell-based, human. The conditions noted are these: small molecules, TGFβ 24 hours, concentration dependent. The protocol:
(§2) The ability of select small molecules to lower a TGFβ 1-induced mRNA were tested in assays with the cell line LL97a (ATCC) as follows. LL97a cells were seeded in 96 well plates at 10,000 cells/well in DMEM+10% FBS+1% NaPyr, +1% L-glut, +1% NEAA, +1% HEPES+0.5% Pen/Strep. The following day test articles and controls were added at varying concentrations in assay media of DMEM+0.5% BSA along with 0.5 ng/mL TGFβ1 (PeproTech Inc.) was added to wells. After 24 hours or 48 hours incubation with TGFβ1 at 37 C in a 5% CO2 environment RNA was prepared from cells and QPCR performed for the TGFβ-inducible genes αSMA and elastin as well as the non-inducible control gene RPLPO with a Tagman® Gene Expression Cells-to-CT 1—Step Kit (Life Technologies Inc.) and with a One Step Plus Thermocycler (Applied Biosystems) as per manufacturers' recommendations. Primer probe sets were obtained from ThermoFisher Scientific.
Compounds 2.1 and 171 were covalently attached to an anti-LRRC15 antibody using different protease cleavable PABC linkers. […] Average DAR level of the purified species was determined by analysis via hydrophobic interaction chromatography (HIC) using TSK-gel butyl NPR (Tosoh Bioscience LLC) and by LCMS (Waters Corp.) and they were tested for their ability to reduce αSMA and elastin gene induction by TGFβ in the LL97a and NHLF human fibroblast cell lines using a qPCRassay. […]

The subject of assay [6] is elastin gene expression in LL97a cells. Kind of assay: qPCR of TGFβ-induced elastin mRNA in LL97a IPF fibroblasts. In kind it is cell-based, human. Conditions: small molecules, TGFβ 24 hours, concentration dependent. The protocol: as §2
Assay [7] addresses T2, full length human LRRC15 (human, UniProt Q8TF66 22-581).
T2 sequence (looked up): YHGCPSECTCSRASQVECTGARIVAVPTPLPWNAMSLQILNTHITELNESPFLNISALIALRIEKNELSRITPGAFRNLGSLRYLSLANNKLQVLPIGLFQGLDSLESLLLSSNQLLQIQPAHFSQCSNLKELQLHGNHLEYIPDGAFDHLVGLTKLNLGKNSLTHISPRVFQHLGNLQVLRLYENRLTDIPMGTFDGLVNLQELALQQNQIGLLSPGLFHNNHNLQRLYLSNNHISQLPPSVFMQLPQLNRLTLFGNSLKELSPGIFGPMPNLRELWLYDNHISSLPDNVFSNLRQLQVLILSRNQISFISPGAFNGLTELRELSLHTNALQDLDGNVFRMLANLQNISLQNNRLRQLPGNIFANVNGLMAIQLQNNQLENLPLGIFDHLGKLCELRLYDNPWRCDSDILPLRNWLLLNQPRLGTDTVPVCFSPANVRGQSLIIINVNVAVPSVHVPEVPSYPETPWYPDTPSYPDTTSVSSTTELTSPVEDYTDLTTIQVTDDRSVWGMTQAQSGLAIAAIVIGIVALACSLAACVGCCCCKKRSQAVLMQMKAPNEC
Kind of assay: cell-based or functional assay.

T1 sequence (P37173 23-567): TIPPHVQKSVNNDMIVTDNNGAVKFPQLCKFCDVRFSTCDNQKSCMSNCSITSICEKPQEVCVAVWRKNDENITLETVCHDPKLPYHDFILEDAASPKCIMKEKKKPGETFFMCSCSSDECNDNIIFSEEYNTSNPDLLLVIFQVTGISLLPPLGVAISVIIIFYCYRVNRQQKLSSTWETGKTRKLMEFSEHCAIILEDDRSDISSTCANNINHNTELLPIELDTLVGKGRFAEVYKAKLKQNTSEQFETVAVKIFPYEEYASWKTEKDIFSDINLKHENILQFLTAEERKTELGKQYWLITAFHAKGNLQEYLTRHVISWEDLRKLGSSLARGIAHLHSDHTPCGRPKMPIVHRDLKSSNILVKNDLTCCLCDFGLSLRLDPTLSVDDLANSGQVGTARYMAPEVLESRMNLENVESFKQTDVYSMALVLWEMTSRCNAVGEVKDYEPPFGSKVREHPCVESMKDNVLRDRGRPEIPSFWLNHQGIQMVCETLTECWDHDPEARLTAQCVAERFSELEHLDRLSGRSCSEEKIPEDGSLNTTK

The molecule `CC(CN)Oc1ccc(-c2cnc(N)c(C(=O)Nc3cnccc3N3CCOCC3)n2)cc1` (stereo not shown) [Compound 211] yielded a concentration giving a half-maximal response (EC50) in assay [1] of less than 50 nM. Also, in assay [2], the half-maximal inhibitory concentration (IC50) was less than 50 nM. Also, the “mRNA level of TGFβ-inducible genes in tumors” value in assay [3] is recorded as “reduces the mRNA level; also recorded: decreased many TGFβ-inducible gene mRNAs”; in assay [4] it was “reduce the mRNA level; also recorded: reduced the mRNA level of most TGFβ-inducible genes”.
Take `Nc1ncc(-c2ccc3c(c2)C(O)CC3)nc1C(=O)Nc1cnccc1N1CCOCC1` (stereo not shown) [Compound 250]: in assay [1], the EC50 lay in the range of 100 to 1000 nM. For the same molecule, the IC50 in assay [2] is less than 50 nM. In assay [5], the “inhibition of TGFβ-induction of αSMA gene expression” value is recorded as “inhibits”. Besides, the “inhibition of TGFβ-induction of elastin gene expression” value in assay [6] is reported as “inhibits”.
Turning to `Nc1ncc(-c2ccc(Cl)cc2Cl)nc1C(=O)Nc1cnccc1N1CCOCC1` [Compound 153], the concentration giving a half-maximal response (EC50) in assay [1] is more than 1000 nM. Further, the concentration for half-maximal inhibition (IC50) in assay [2] was 100 to 1000 nM.
For the molecule `Nc1ncc(-c2ccc(CCNC(=O)OCc3ccccc3)cc2)nc1C(=O)Nc1cnccc1N1CCCOC1=O` [Compound 38], the concentration for a half-maximal effect (EC50) in assay [1] is 100 to 1000 nM. The IC50 in assay [2] fell in the range of 100 to 1000 nM.
The molecule `CC(C)[C@H](N)C(=O)N1CCC[C@H]1C(=O)NCc1ccc(-c2cnc(N)c(C(=O)Nc3cnccc3N3CCOCC3)n2)cc1` [Compound 112] returned a half-maximal effective concentration (EC50) in assay [1] of 50 to 100 nM. This molecule also gave an IC50 in assay [2] of less than 50 nM.
Turning to `Nc1ncc(-c2ccc(CCNC(=O)OCc3ccccc3)c(F)c2)nc1C(=O)Nc1cnccc1N1CCOCC1` [Compound 46], the 50% effective concentration (EC50) in assay [1] fell in the range of 100 to 1000 nM. Also, the IC50 in assay [2] is less than 50 nM.
In assay [1], `CC(C)(C)OC(=O)N[C@H]1C[C@H](Oc2ccc(-c3cnc(N)c(C(=O)Nc4cnccc4N4CCOCC4)n3)cc2)C1` [Compound 221] had an EC50 of less than 50 nM. The molecule also registered a half-inhibitory concentration (IC50) in assay [2] of less than 50 nM.
Molecule `Nc1ncc(Cc2ccccc2)nc1C(=O)Nc1cnccc1N1CCOCC1` [Compound 186] showed a half-maximal effective concentration (EC50) in assay [1] of more than 1000 nM. Besides, in assay [2], the half-inhibitory concentration (IC50) was more than 1000 nM.
In turn, `COC1CN(c2ccncc2NC(=O)c2nc(-c3ccc(CCNC(=O)OCc4ccccc4)cc3)cnc2N)C1` [Compound 96] showed an EC50 in assay [1] of more than 1000 nM. Also, in assay [2], the IC50 is more than 1000 nM.
Molecule `CC(CNC(=O)OC(C)(C)C)Oc1cccc(-c2cnc(N)c(C(=O)Nc3cnccc3N3CCOCC3)n2)c1` (stereo not shown) [Compound 191] registered an EC50 in assay [1] of more than 1000 nM. In addition, the 50% inhibitory concentration (IC50) in assay [2] was less than 50 nM.
For `Nc1ncc(-c2ccc(CCCNC(=O)OCc3ccccc3)cc2)cc1C(=O)Nc1cnccc1N1CCOCC1` [Compound 79], in that order: 100 to 1000 nM and more than 1000 nM.

B1: anti-LRRC15 humanized IgG1 M25 antibody with Fc null domain conjugated to LP1 (antibody, V domains shown)
VH: EVQLVQSGAEVKKPGASVKVSCKASGYKFSSYWIEWVKQAPGQGLEWIGEILPGSDTTNYNEKFKDRATFTSDTSINTAYMELSRLRSDDTAVYYCARDRGNYRAWFGYWGQGTLVTVSS
VL: DIQMTQSPSSLSASVGDRVTITCRASQDISNYLNWYQQKPGGAVKFLIYYTSRLHSGVPSRFSGSGSGTDYTLTISSLQPEDFATYFCQQGEALPWTFGGGTKVEIK
modifications: linker-payload LP1 on interchain disulfide cysteines, average DAR 2.5-4
In the case of B1, the “absolute IC50 of TGFβ1-induced SMAD2 promoter luciferase activity, HEK293 reporter cells expressing human LRRC15” value in assay [7] was less than 10 nM.

B2: anti-LRRC15 humanized IgG1 M25 antibody with Fc null domain conjugated to LP10 (antibody, V domains shown)
VH: B1 VH
VL: B1 VL
modifications: linker-payload LP10 on interchain disulfide cysteines, average DAR 2.5-4
For the molecule B2, the “absolute IC50 of TGFβ1-induced SMAD2 promoter luciferase activity, HEK293 reporter cells expressing human LRRC15” value in assay [7] was less than 10 nM.

What is called EC50 is the concentration at which the effect is half-maximal. A lower EC50 goes with higher potency in that assay. By IC50 is commonly meant the concentration that gives 50% inhibition. The low end stands for inhibition by little substance, the high end for a need for much substance.

The record behind these values is patent US20220362396A1, “AMINO-PYRAZINECARBOXAMIDE COMPOUNDS, CONJUGATES, AND USES THEREOF” (Silverback Therapeutics, Inc., priority 2018, published 2022).
